Reference: patent US10385005B2, “Compositions and methods for glucose transport inhibition” (OHIO UNIVERSITY, priority 2010, dated 2019)

Key:
H1299 cells = assay: Standard glucose uptake assay, H1299; assay type: cell-based, human; conditions: for Glucose transport inhibition (%) / level of glucose transport inhibition (in words): H1299; for % inhibition of basal glucose transport: Table 3, 30 μM in H1299 cells
Description: (§1) Briefly, H1299 cancer cells were treated with or without the compounds (30 μM) in triplicates for 10 min before the glucose uptake assay. Cellular glucose uptake was measured by incubating cells in the glucose-free KRP buffer with […] [^3H]2-deoxyglucose (specific activity, 40 Ci/mmol) for 30 min in the absence or presence of compounds. After the cells were washed with ice-cold PBS and lysed by 0.2 N NaOH, the cell lysates were transferred to scintillation counting vials and the radioactivity in the cell lysates was quantified by liquid scintillation counting. Cell growth measurements were performed using an MTT assay in hexads in a 96-well tissue culture plate with 5,000 cells plated in each well. The cells were incubated in presence or absence of the compounds (30 μM) for 48 h. After incubation, cell viabilities were assayed using a 96-well SPECTRAMAX™ absorbance/fluorescence plate reader (Molecular Devices).
Cancer cells are treated with or without the compounds for 10 min before the glucose uptake assay. Cellular glucose uptake will be measured by incubating cells in glucose-free RPMI 1640 with […] [^3H]2-deoxyglucose (specific activity, 40 Ci/mmol) for 30 min in the absence and presence of compounds. After the cells are washed with ice-cold PBS and lysed, the cell lysates will be transferred to scintillation counting vials and the radioactivity in the cell lysates is quantified by liquid scintillation counting.

H1299 lung cancer cells = assay: MTT cell growth / viability assay, H1299; assay type: cell-based, human; conditions: Table 2, 30 μM, 48 h
Description: as §1
MTT assays are performed by the following well-established method. In a 96 well tissue culture plate 10,000 cells are plated in each well. The cells are incubated in presence or absence of the compounds for 18 h. 3-(4,5-Dimethylthiazol-2-yl)-2,5-diphenyltetrazolium bromide (MTT) is dissolved in PBS (10 mg/ml) and filter sterilized. Three hours before the end of the incubation 20 μL of MTT solution is added to each well containing cells in a 96-well plate. The plate is incubated in an incubator at 37° C. for 3 h. Media is aspirated gently and 200 μL of DMSO is added to each well to dissolve formazan crystals. The absorbance is measured at 550 nm for cell viability.

[1] = Table 2, 30 μM, untreated cells 0% inhibition

`O=C(Oc1ccc(Cl)cc1OC(=O)c1cc(O)c(O)c(O)c1)c1cc(O)c(O)c(O)c1` [Compound 1b] was tested, and the “Glucose transport inhibition (%)” value (H1299 cells; [1]) was 84.4 ± 0.1%.

`O=C(Oc1cccc(F)c1OC(=O)c1cc(O)c(O)c(O)c1)c1cc(O)c(O)c(O)c1` [Compound 1c] was tested, and the “Glucose transport inhibition (%)” value (H1299 cells; [1]) was 81.1 ± 1.1% and the “% inhibition of basal glucose transport” value (H1299 cells) was 81.0 ± 1.1%.

In the case of `O=C(Oc1ccccc1OC(=O)c1cc(O)c(O)c(O)c1)c1cc(O)c(O)c(O)c1` [Compound 1d], the “level of glucose transport inhibition (in words)” value (H1299 cells; 30 μM) is reported as “lower levels of inhibition relative to 1a and 2a” and the “Glucose transport inhibition (%)” value (H1299 cells; [1]) is reported as 32.1 ± 6.2%.

For `COc1cccc(OC(=O)c2cc(O)cc(O)c2)c1OC(=O)c1cc(O)cc(O)c1` [Compound 1e], the “level of glucose transport inhibition (in words)” value (H1299 cells; 30 μM) was “little to no inhibition” and the “Glucose transport inhibition (%)” value (H1299 cells; [1]) was 69.4 ± 3.0%.

For `O=C(Oc1ccc(Cl)cc1OC(=O)c1cc(O)cc(O)c1)c1cc(O)cc(O)c1` [Compound 1f], the “Glucose transport inhibition (%)” value (H1299 cells; [1]) was 95.2 ± 0.2%, the “% inhibition of basal glucose transport” value (H1299 cells; listed as WZB-114) was 96.1 ± 0.1% and the “Cell growth inhibition (%)” value (H1299 lung cancer cells) was 38.8 ± 6.9%.

With `O=C(Oc1cccc(F)c1OC(=O)c1cc(O)cc(O)c1)c1cc(O)cc(O)c1` [Compound 1g] the “Glucose transport inhibition (%)” value (H1299 cells; [1]) was 94.0 ± 0.8%, the “% inhibition of basal glucose transport” value (H1299 cells; listed as WZB-113) was 96.7 ± 1.6% and the “Cell growth inhibition (%)” value (H1299 lung cancer cells) was 35.0 ± 7.6%.

`COc1cccc(OC(=O)c2ccc(O)c(O)c2)c1OC(=O)c1ccc(O)c(O)c1` [Compound 1h] was tested, and the “level of glucose transport inhibition (in words)” value (H1299 cells; 30 μM) was “little to no inhibition”, the “Glucose transport inhibition (%)” value (H1299 cells; [1]) was 0% and the “Cell growth inhibition (%)” value (H1299 lung cancer cells) was 32.4 ± 2.7%.

In the case of `O=C(Oc1ccc(Cl)cc1OC(=O)c1ccc(O)c(O)c1)c1ccc(O)c(O)c1` [Compound 1i], the “Glucose transport inhibition (%)” value (H1299 cells; [1]) is reported as 94.4 ± 0.4% and the “Cell growth inhibition (%)” value (H1299 lung cancer cells) is reported as 45.2 ± 7.6%.

With `O=C(Oc1cccc(F)c1OC(=O)c1ccc(O)c(O)c1)c1ccc(O)c(O)c1` [Compound 1j] the “Glucose transport inhibition (%)” value (H1299 cells; [1]) was 88.7 ± 1.8% and the “Cell growth inhibition (%)” value (H1299 lung cancer cells) was 41.5 ± 5.5%.

`COc1cccc(OC(=O)c2ccccc2O)c1OC(=O)c1ccccc1O` [Compound 1k] was tested, and the “Glucose transport inhibition (%)” value (H1299 cells; [1]) was 50.5 ± 7.6% and the “Cell growth inhibition (%)” value (H1299 lung cancer cells) was 18.0 ± 4.4%.

In the case of `O=C(Oc1ccc(Cl)cc1OC(=O)c1ccccc1O)c1ccccc1O` [Compound 1l], the “Glucose transport inhibition (%)” value (H1299 cells; [1]) is reported as 51.6 ± 5.9% and the “Cell growth inhibition (%)” value (H1299 lung cancer cells) is reported as 26.6 ± 2.3%.

`O=C(Oc1cccc(F)c1OC(=O)c1ccccc1O)c1ccccc1O` [Compound 1m] was tested, and the “Glucose transport inhibition (%)” value (H1299 cells; [1]) was 51.0 ± 6.6%.

In the case of `COc1cccc(OC(=O)c2ccc(O)cc2)c1OC(=O)c1ccc(O)cc1` [Compound 1n], the “Glucose transport inhibition (%)” value (H1299 cells; [1]) is reported as 86.5 ± 2.8% and the “Cell growth inhibition (%)” value (H1299 lung cancer cells) is reported as 36.6 ± 6.7%.

`O=C(Oc1ccc(Cl)cc1OC(=O)c1ccc(O)cc1)c1ccc(O)cc1` [Compound 1o] was tested, and the “Glucose transport inhibition (%)” value (H1299 cells; [1]) was 79.0 ± 8.7%.

In the case of `O=C(Oc1cccc(F)c1OC(=O)c1ccc(O)cc1)c1ccc(O)cc1` [Compound 1p], the “Glucose transport inhibition (%)” value (H1299 cells; [1]) is reported as 92.6 ± 0.7% and the “Cell growth inhibition (%)” value (H1299 lung cancer cells) is reported as 35.9 ± 4.7%.

`O=C(Oc1ccccc1OC(=O)c1ccc(O)cc1)c1ccc(O)cc1` [Compound 1q] was tested, and the “Glucose transport inhibition (%)” value (H1299 cells; [1]) was 57.5 ± 2.9%.

`O=C(Oc1cccc(OC(=O)c2cc(O)cc(O)c2)c1OC(=O)c1cc(O)cc(O)c1)c1cc(O)cc(O)c1` [Compound 2b] was tested, and the “Glucose transport inhibition (%)” value (H1299 cells; [1]) was 98.7 ± 0.8%, the “% inhibition of basal glucose transport” value (H1299 cells; listed as WZB-111) was 99.5 ± 0.3% and the “Cell growth inhibition (%)” value (H1299 lung cancer cells) was 41.0 ± 5.5%.

For `O=C(Oc1cccc(OC(=O)c2ccc(O)c(O)c2)c1OC(=O)c1ccc(O)c(O)c1)c1ccc(O)c(O)c1` [Compound 2c], the “Glucose transport inhibition (%)” value (H1299 cells; [1]) was 94.7 ± 0.4% and the “Cell growth inhibition (%)” value (H1299 lung cancer cells) was 42.2 ± 6.1%.

For `O=C(Oc1cccc(OC(=O)c2ccccc2O)c1OC(=O)c1ccccc1O)c1ccccc1O` [Compound 2d], the “Glucose transport inhibition (%)” value (H1299 cells; [1]) was 74.7 ± 2.0%.

For `COc1cc(C(=O)Oc2cccc(OC)c2OC(=O)c2cc(OC)c(OC)c(OC)c2)cc(OC)c1OC` [Compound 7a], the “level of glucose transport inhibition (in words)” value (H1299 cells; 30 μM) was “dramatically decreased”, the “Glucose transport inhibition (%)” value (H1299 cells; [1]) was 33.3 ± 3.6% and the “Cell growth inhibition (%)” value (H1299 lung cancer cells) was 22.2 ± 3.4%.

With `Oc1cccc(CNc2ccc(Cl)cc2NCc2cccc(O)c2)c1` [WZB-138] the “Glucose transport inhibition (%)” value (H1299 cells; Table 12) was 52.2 ± 9.7%.

In the case of `Oc1cccc(CNc2ccc(F)cc2NCc2cccc(O)c2)c1` [WZB-139], the “Glucose transport inhibition (%)” value (H1299 cells; Table 12) is reported as 39.2 ± 0.8%.
